Reference: patent US20250332143A1, “COMPOSITION COMPRISING ALOX5 INHIBITOR FOR PREVENTING OR TREATING SARCOPENIA” (PLUTO Inc., priority 2022, published 2025)

Tests used:
[1] = system: Dex-treated C2C12 myotubes; test: SUNSET assay of protein synthesis in Dex-treated myotubes; type: cell-based, mouse
Procedure: (§1) C2C12 murine skeletal muscle myoblasts were obtained from Koram Biotech (Republic of Korea). The cells were maintained in DMEM growth medium supplemented with 10% FBS, 1% penicillin, and streptomycin. When myoblasts proliferated to approximately 90%, they were differentiated into muscle fibers by treating them with DMEM differentiation medium supplemented with 2% HS, 1% penicillin, and streptomycin for 96 hours. Differentiated muscle fibers were treated with 10 μM Dex for 24 hours to induce sarcopenia. To evaluate the degree of differentiation of muscle cells, differentiating myoblasts were treated with the corresponding compound in differentiation medium for 24 or 48 hours. The concentration of intracellular protein was measured using the Bradford assay (Bio-Rad, USA, CA), and electrophoresis was performed by loading on 10% and 12% polyacrylamide gels. Afterwards, the separated proteins were transferred to a PVDF membrane, and the primary antibody used was diluted 1:1000 in TBS-T containing 5% skim milk and incubated overnight at 4° C. Secondary antibodies were diluted 1:2000 and incubated for 35 minutes at room temperature (RT). Band intensity was measured using ImageJ 1.52 software (National Institutes of Health, USA), and intracellular protein was normalized to α-tubulin.

LC3b, p62 = test: Western blot of autophagy markers LC3b I, LC3b II and p62 in Dex-treated myotubes; type: cell-based, mouse
Procedure: as §1

aged C57BL/6J mice = test: Sarcopenia model using aging mice; type: in vivo, mouse
Procedure: Male C57BL/6J mice over 21 months of age were divided into 2 groups of 5 and treated with drugs as follows: 1) 0.5% carboxyl methyl with 6.73% DMSO (Vehicle group) and 2) 50 mg/kg of malotilate (at a concentration of 50 mg/kg, 0.5% carboxyl methyl with 6.73% DMSO) (Malotilate group). Those were administered orally daily for 4 weeks. Afterwards, the function and condition of the muscles were analyzed.
Grip strength was measured with the BIO-GS3 grip strength test meter (Bioseb, FL, USA). Grip strength was measured by placing the mouse on a grid and gently pulling it back with all four paws until the mouse fell off the grid. The trials were conducted with a time interval of 30 seconds, and the largest value among the three trials was selected as the representative muscle strength.
Muscle fatigue was measured from two different models using Rotarod (Ugo Basile, Italy). One is a constant speed model that measures how long movement can be continued on a cylinder rotating at a constant speed, and the other model is an acceleration model that measures how fast the mouse can continue movement when the speed of the cylinder increases at regular intervals. Mice were trained to adapt from 5 rpm to 15 rpm one day before measurement in the above two models.
Before sacrifice, mice were anesthetized by intraperitoneally administering 22 mg/kg Ketamine (Yuhan, Republic of Korea) and 10 mg/kg xylazine (Bayer, Republic of Korea) by IP injection, and then samples were collected. Quadriceps, gastrocnemius, tibialis anterior and soleus muscles were sampled and their weights were measured. The muscles sampled for immunohistostaining were cultured overnight at 4° C. with 4% paraformaldehyde, fixed, embedded in paraffin solution, and stored at −80° C. Cutting and hematoxylin & eosin staining were carried out at the Animal Research Facility of the Gwangju Institute of Science and Technology, Republic of Korea. Hematoxylin & eosin staining was performed using the kit (Merck, Germany). The cross-sectional area of muscle fibers was measured using ImageJ 1.48 software (National Institutes of Health, USA).
Immunohistochemical staining was performed using myosin heavy chain types 2A and 2B (DSHB, IA, USA) and anti-laminin antibody (Abcam, Cambirdge, UK). Counterstain was stained with 1 μM DAPI solution. The cross-sectional area of muscle fibers was visualized using LEICA DM 2500 (Leica, Germany) and then measured using ImageJ 1.48 software (National Institutes of Health, USA).

atrogin-1 and MuRF-1 = test: qPCR of atrogin-1 and MuRF-1 in human myotubes; type: cell-based
Procedure: For quantitative real-time PCR, transcript levels of genes of interest were analyzed using the StepOnePlus real-time PCR system (Applied Biosystems, UK). Total RNA was reverse transcribed to prepare cDNA using AccuPower® RT PreMix (Bioneer Corporation). The obtained cDNA was subjected to real-time PCR according to the manufacturer's instructions with the following changes. PCR was performed in triplicate in a total volume of 20 μL 2× Power SYBR Green PCR Master Mix (Enzynomics, Republic of Korea) containing 200 nM (final concentration) of each specific primer and 1 μL of cDNA synthesized from 1 μg of total RNA. […] Denaturation was performed at 95° C. for 15 s, annealing was performed at 60° C. for 1 min, and extension was performed at 72° C. for 20 s with fluorescence detection at 72° C. after each cycle. After the final cycle, melting point analysis of all samples was performed within the range of 60 to 95° C. using continuous fluorescence detection. […] Results were expressed as relative expression levels for each gene. The synthesized cDNA was amplified by quantitative real-time PCR (qRT-PCR) or standard PCR.
Human-derived myoblasts were purchased from Thermo-Fisher Scientific (USA). […] Myotubes were stained with H&E. After light microscopy analysis of DIC captured images (Olympus CKX41), myotubes were measured using ImageJ 1.48 software (National Institutes of Health, USA).

[2] = aged mice, 50 mg/kg orally daily, 4 weeks

CC(C)OC(=O)C(C(=O)OC(C)C)=C1SC=CS1 [malotilate, Malotilate]
total protein synthesis [1]: restored | autophagy (LC3b, p62): reduced | expression of p62 (LC3b, p62): increases | ratio of LC3bII to LC3bI (LC3b, p62): decreases | grip strength (aged C57BL/6J mice; [2]): significantly increased | mean latency to fall (aged C57BL/6J mice; [2]): increased in malotilate-treated mice but did not reach statistical significance | quadriceps muscle mass (aged C57BL/6J mice; [2]): significantly increased | soleus muscle mass (aged C57BL/6J mice; [2]): significantly increased | CSA of fast twitch fibers (types IIA and IIB) (aged C57BL/6J mice; aged mice, immunohistology): preserves | average muscle fiber cross-sectional area (aged C57BL/6J mice; aged mice, quadriceps): increased | proportion of large myofibers (>5000 μm^2) (aged C57BL/6J mice; aged mice, quadriceps): much larger proportion | skeletal muscle atrophy (aged C57BL/6J mice; animal model of sarcopenia due to aging): inhibited | MuRF-1 expression (atrogin-1 and MuRF-1): significantly reduced | atrogin-1 expression (atrogin-1 and MuRF-1): significantly reduced
